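Interpolation was linear, between the two tested concentrations surrounding the appropriate level; five concentrations were tested over 48 hours in 96-well plates. TGI: total growth inhibition.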
Assays:
Assay in all cases: inhibition of tumour cell growth, NCI panel, 48 h
BT-549 breast = test system: BT-549 breast
SK-MEL-2 melanoma = test system: SK-MEL-2 melanoma
SF-295 CNS = test system: SF-295 CNS
SK-MEL-5 melanoma = test system: SK-MEL-5 melanoma
OVCAR-8 ovarian = test system: OVCAR-8 ovarian
OVCAR-4 ovarian = test system: OVCAR-4 ovarian
HCT-116 colon = test system: HCT-116 colon
NCI-H226 lung = test system: NCI-H226 lung
NCI-H522 lung = test system: NCI-H522 lung
HOP-92 NSCLC = test system: HOP-92 NSCLC
A498 renal = test system: A498 renal
MDA-MB-435 = test system: MDA-MB-435
HS 578T breast = test system: HS 578T breast
SW-620 colon = test system: SW-620 colon
MDA-MB-231 breast = test system: MDA-MB-231 breast
MCF7 breast = test system: MCF7 breast
U251 CNS = test system: U251 CNS
MALME-3M melanoma = test system: MALME-3M melanoma
SR leukemia = test system: SR leukemia
DU-145 prostate = test system: DU-145 prostate
CCRF-CEM leukemia = test system: CCRF-CEM leukemia
NCI-H460 lung = test system: NCI-H460 lung
EKVX NSCLC = test system: EKVX NSCLC
COLO 205 colon = test system: COLO 205 colon
HL-60(TB) leukemia = test system: HL-60(TB) leukemia
HT29 colon = test system: HT29 colon
LOX IMVI melanoma = test system: LOX IMVI melanoma
A549 NSCLC = test system: A549 NSCLC
T-47D breast = test system: T-47D breast
CAKI-1 renal = test system: CAKI-1 renal
MOLT-4 leukemia = test system: MOLT-4 leukemia
M14 melanoma = test system: M14 melanoma
UACC-62 melanoma = test system: UACC-62 melanoma
SK-MEL-28 melanoma = test system: SK-MEL-28 melanoma
TK-10 renal = test system: TK-10 renal
SN12C renal = test system: SN12C renal
SF-539 CNS = test system: SF-539 CNS
KM12 colon = test system: KM12 colon
RXF 393 renal = test system: RXF 393 renal
786-0 renal = test system: 786-0 renal
SK-OV-3 ovarian = test system: SK-OV-3 ovarian
NCI-H23 lung = test system: NCI-H23 lung
UO-31 renal = test system: UO-31 renal
ACHN renal = test system: ACHN renal
OVCAR-3 ovarian = test system: OVCAR-3 ovarian
UACC-257 melanoma = test system: UACC-257 melanoma
K-562 leukemia = test system: K-562 leukemia
RPMI-8226 leukemia = test system: RPMI-8226 leukemia
MDA-N = test system: MDA-N
PC-3 prostate = test system: PC-3 prostate
OVCAR-5 ovarian = test system: OVCAR-5 ovarian
NCI/ADR-RES ovarian = test system: NCI/ADR-RES ovarian
SNB-19 CNS = test system: SNB-19 CNS
SNB-75 CNS = test system: SNB-75 CNS
HCC-2998 colon = test system: HCC-2998 colon
HCT-15 colon = test system: HCT-15 colon
IGROV1 ovarian = test system: IGROV1 ovarian
SF-268 CNS = test system: SF-268 CNS
HOP-62 NSCLC = test system: HOP-62 NSCLC

CCN(CC)CCCNc1[nH]ncc2cc3c(nc4ccc(OC)cc43)c(C)c12
TGI (BT-549 breast): 30.9 µM
TGI (SK-MEL-2 melanoma): 33.9 µM
TGI (SF-295 CNS): 25.7 µM
TGI (SK-MEL-5 melanoma): 29.4 µM
TGI (OVCAR-8 ovarian): 18.9 µM
TGI (OVCAR-4 ovarian): 13.8 µM
TGI (HCT-116 colon): 13 µM
TGI (NCI-H226 lung): 22.6 µM
TGI (NCI-H522 lung): 17.4 µM
TGI (HOP-92 NSCLC): 29.8 µM
TGI (A498 renal): 30.7 µM
TGI (MDA-MB-435): 23.1 µM
TGI (HS 578T breast): 28.5 µM
TGI (SW-620 colon): 19.4 µM
TGI (MDA-MB-231 breast): 21.2 µM
TGI (MCF7 breast): 16.6 µM
TGI (U251 CNS): 16 µM
TGI (MALME-3M melanoma): 28.3 µM
TGI (SR leukemia): 33.1 µM
TGI (DU-145 prostate): 15.9 µM
TGI (CCRF-CEM leukemia): 16.5 µM
TGI (NCI-H460 lung): 17 µM
TGI (EKVX NSCLC): 31.4 µM
TGI (COLO 205 colon): 21.2 µM
TGI (HL-60(TB) leukemia): 0.0166 µM
TGI (HT29 colon): 16.2 µM
TGI (LOX IMVI melanoma): 15.8 µM
TGI (A549 NSCLC): 22.2 µM
TGI (T-47D breast): 26.5 µM
TGI (CAKI-1 renal): 24.7 µM
TGI (MOLT-4 leukemia): 10.9 µM
TGI (M14 melanoma): 25.6 µM
TGI (UACC-62 melanoma): 35.8 µM
TGI (SK-MEL-28 melanoma): 30.8 µM
TGI (TK-10 renal): 28.8 µM
TGI (SN12C renal): 18.7 µM
TGI (SF-539 CNS): 15.2 µM
TGI (KM12 colon): 15.7 µM
TGI (RXF 393 renal): 17.7 µM
TGI (786-0 renal): 15.4 µM
TGI (SK-OV-3 ovarian): 22.3 µM
TGI (NCI-H23 lung): 24.6 µM
TGI (UO-31 renal): 23.8 µM
TGI (ACHN renal): 20.9 µM
TGI (OVCAR-3 ovarian): 19.1 µM
TGI (UACC-257 melanoma): 33.7 µM
TGI (K-562 leukemia): 16.3 µM
TGI (RPMI-8226 leukemia): 46.8 µM
TGI (MDA-N): 22.3 µM
TGI (PC-3 prostate): 16.5 µM
TGI (OVCAR-5 ovarian): 24.8 µM
TGI (NCI/ADR-RES ovarian): > 100 µM
TGI (SNB-19 CNS): 18 µM
TGI (SNB-75 CNS): 23 µM
TGI (HCC-2998 colon): 18.8 µM
TGI (HCT-15 colon): 41.3 µM
TGI (IGROV1 ovarian): 19.5 µM
TGI (SF-268 CNS): > 48.1 µM
TGI (HOP-62 NSCLC): 16.4 µM

COc1ccc(C(CC(C)=O)c2c(O)c3ccccc3oc2=O)cc1OC (configuration not stated)
TGI (BT-549 breast): > 100 µM
TGI (SK-MEL-2 melanoma): > 100 µM
TGI (SF-295 CNS): > 100 µM
TGI (SK-MEL-5 melanoma): > 100 µM
TGI (OVCAR-8 ovarian): > 100 µM
TGI (OVCAR-4 ovarian): > 100 µM
TGI (HCT-116 colon): > 100 µM
TGI (NCI-H226 lung): > 100 µM
TGI (NCI-H522 lung): > 100 µM
TGI (HOP-92 NSCLC): > 100 µM
TGI (A498 renal): > 100 µM
TGI (MDA-MB-435): > 100 µM
TGI (HS 578T breast): > 100 µM
TGI (SW-620 colon): > 100 µM
TGI (MDA-MB-231 breast): > 100 µM
TGI (MCF7 breast): > 100 µM
TGI (U251 CNS): > 100 µM
TGI (MALME-3M melanoma): > 100 µM
TGI (SR leukemia): > 100 µM
TGI (DU-145 prostate): > 100 µM
TGI (CCRF-CEM leukemia): > 100 µM
TGI (NCI-H460 lung): > 100 µM
TGI (EKVX NSCLC): > 100 µM
TGI (COLO 205 colon): > 100 µM
TGI (HL-60(TB) leukemia): > 100 µM
TGI (HT29 colon): > 100 µM
TGI (LOX IMVI melanoma): > 100 µM
TGI (A549 NSCLC): > 100 µM
TGI (T-47D breast): > 100 µM
TGI (CAKI-1 renal): > 100 µM
TGI (MOLT-4 leukemia): > 100 µM
TGI (M14 melanoma): > 100 µM
TGI (UACC-62 melanoma): > 100 µM
TGI (SK-MEL-28 melanoma): > 100 µM
TGI (TK-10 renal): > 100 µM
TGI (SN12C renal): > 100 µM
TGI (SF-539 CNS): > 100 µM
TGI (KM12 colon): > 100 µM
TGI (RXF 393 renal): > 100 µM
TGI (786-0 renal): > 100 µM
TGI (SK-OV-3 ovarian): > 100 µM
TGI (NCI-H23 lung): > 100 µM
TGI (UO-31 renal): > 100 µM
TGI (ACHN renal): > 100 µM
TGI (OVCAR-3 ovarian): > 100 µM
TGI (UACC-257 melanoma): > 100 µM
TGI (K-562 leukemia): > 100 µM
TGI (RPMI-8226 leukemia): > 100 µM
TGI (MDA-N): > 100 µM
TGI (PC-3 prostate): > 100 µM
TGI (OVCAR-5 ovarian): > 100 µM
TGI (NCI/ADR-RES ovarian): > 100 µM
TGI (SNB-19 CNS): > 100 µM
TGI (SNB-75 CNS): > 100 µM
TGI (HCC-2998 colon): > 100 µM
TGI (HCT-15 colon): > 100 µM
TGI (IGROV1 ovarian): > 100 µM
TGI (SF-268 CNS): > 100 µM
TGI (HOP-62 NSCLC): > 100 µM

C=C1c2nc3ccccc3n2C=C(c2ccc(OC)cc2)N1c1ccccc1
TGI (BT-549 breast): 71 µM
TGI (SK-MEL-2 melanoma): 42.4 µM
TGI (SF-295 CNS): > 55.6 µM
TGI (SK-MEL-5 melanoma): 42.2 µM
TGI (OVCAR-8 ovarian): > 69.3 µM
TGI (OVCAR-4 ovarian): > 100 µM
TGI (HCT-116 colon): > 100 µM
TGI (NCI-H226 lung): 22.6 µM
TGI (NCI-H522 lung): 27.2 µM
TGI (HOP-92 NSCLC): > 100 µM
TGI (A498 renal): > 100 µM
TGI (MDA-MB-435): 4.83 µM
TGI (HS 578T breast): > 96.6 µM
TGI (SW-620 colon): > 65.4 µM
TGI (MDA-MB-231 breast): > 100 µM
TGI (MCF7 breast): > 63.5 µM
TGI (U251 CNS): > 100 µM
TGI (MALME-3M melanoma): 49.8 µM
TGI (SR leukemia): > 24.5 µM
TGI (DU-145 prostate): > 100 µM
TGI (CCRF-CEM leukemia): > 57.9 µM
TGI (NCI-H460 lung): > 34.5 µM
TGI (EKVX NSCLC): > 100 µM
TGI (COLO 205 colon): > 70.9 µM
TGI (HL-60(TB) leukemia): 7.93 µM
TGI (HT29 colon): 26.7 µM
TGI (LOX IMVI melanoma): > 100 µM
TGI (A549 NSCLC): > 100 µM
TGI (T-47D breast): 98.3 µM
TGI (CAKI-1 renal): > 100 µM
TGI (MOLT-4 leukemia): > 55.9 µM
TGI (M14 melanoma): > 60.4 µM
TGI (UACC-62 melanoma): > 57.6 µM
TGI (SK-MEL-28 melanoma): > 96.7 µM
TGI (TK-10 renal): > 100 µM
TGI (SN12C renal): > 100 µM
TGI (SF-539 CNS): > 91.2 µM
TGI (KM12 colon): > 47.2 µM
TGI (RXF 393 renal): > 76.1 µM
TGI (786-0 renal): > 100 µM
TGI (SK-OV-3 ovarian): > 100 µM
TGI (NCI-H23 lung): 98.5 µM
TGI (UO-31 renal): > 91.3 µM
TGI (ACHN renal): > 100 µM
TGI (OVCAR-3 ovarian): 98 µM
TGI (UACC-257 melanoma): > 100 µM
TGI (K-562 leukemia): > 100 µM
TGI (RPMI-8226 leukemia): 45.1 µM
TGI (MDA-N): 8.56 µM
TGI (PC-3 prostate): > 100 µM
TGI (OVCAR-5 ovarian): > 100 µM
TGI (NCI/ADR-RES ovarian): 9.64 µM
TGI (SNB-19 CNS): 48.3 µM
TGI (SNB-75 CNS): 58.3 µM
TGI (HCC-2998 colon): 39.8 µM
TGI (HCT-15 colon): > 56.8 µM
TGI (IGROV1 ovarian): > 100 µM
TGI (SF-268 CNS): > 100 µM
TGI (HOP-62 NSCLC): > 100 µM
